Activity calls are given as the source filed them. No rule for the calls is given here.
Tested on: rodent carcinogenicity bioassays, tumor incidence
Assay: CCRIS carcinogenicity studies
Procedure, shortened: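 Archive of carcinogenicity, mutagenicity, tumor promotion and tumor inhibition results drawn from journals, NCI reports and other sources, expert-reviewed; covers 1985-2011 and is no longer updated.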

O=[N+]([O-])c1ccccc1Cl
carcinogen call (Species: MOUSE, Strain/Sex: CD-1/FEMALE, Route: ORAL, Dose: 3000, 6000 MG/KG IN DIET FOR 18 MO, Tumor Site: Type of Lesion: LIVER: HEPATOCELLULAR CARCINOMA): active; positive

C[N+]1(C)CCCCC1
carcinogen call (Species: Rat, Strain/Sex: Wistar/Female (50/Group), Route: Oral, Dose: 0, 17, 141, 370 mg/kg/day of 57.9% mepiquat chloride in diet for 24 mo, study duration 24 mo, Dose: 0, 17, 141, 370 mg/kg/day of 57.9% mepiquat chloride in diet for 24 mo, study duration 24 mo): inactive; negative
carcinogen call (Species: Rat, Strain/Sex: Wistar/Male (50/Group), Route: Oral, Dose: 0, 13, 105, 269 mg/kg/day of 57.9% mepiquat chloride in diet for 24 mo, study duration 24 mo, Dose: 0, 13, 105, 269 mg/kg/day of 57.9% mepiquat chloride in diet for 24 mo, study duration 24 mo): inactive; negative

c1ccc2cc3c4ccccc4c4ccccc4c3cc2c1
carcinogen call (Species: MOUSE, Strain/Sex: B6C3F1/MALE, Route: INTRAPERITONEAL, Dose: 0, 400 NMOL IN 35 µL DMSO ON DAYS 1 (1/7 TOTAL DOSE), 8 (2/7 TOTAL DOSE), AND 15 (4/7 TOTAL DOSE) AFTER BIRTH (STUDY DUR): inactive; negative

Cc1cnc2ccc3c(nc(NO)n3C)c2n1
carcinogen call (Species: RAT, Strain/Sex: ACI/SEG/MALE, Route: INTRAPERITONEAL, Dose: 0, 50 UMOL/KG BW 2X/WK FOR 10 WK BEGINNING AT 3 D OF AGE (STUDY DURATION: 68 WK), Tumor Site: Type of Lesion: SOFT TISSUE: TUMOR): active; positive

Cc1cc(C)c(S(=O)(=O)O)cc1N=Nc1cc(S(=O)(=O)O)c2ccccc2c1O
carcinogen call (Species: MOUSE, Strain/Sex: SWISS-WEBSTER/FEMALE, Route: DERMAL, Dose: 0, 1% IN 0.1 ML DISTILLED WATER 1/WK FOR 19.5 MO (STUDY DURATION: 19.5 MO)): inactive; negative
carcinogen call (Species: MOUSE, Strain/Sex: SWISS-WEBSTER/MALE, Route: DERMAL, Dose: 0, 1% IN 0.1 ML DISTILLED WATER 1/WK FOR 19.5 MO (STUDY DURATION: 19.5 MO)): inactive; negative

CC(=O)O[C@@H]1[C@@H](O)[C@H]2O[C@@H]3C=C(C)C(=O)[C@@H](O)[C@]3(CO)[C@]1(C)[C@]21CO1
carcinogen call (Species: MOUSE, Strain/Sex: BDF1/FEMALE, Route: GAVAGE, Dose: 0, 3.5 MG/KG 1/4 WK FOR 1 YR (STUDY DURATION: 2 YR)): inactive; negative
carcinogen call (Species: MOUSE, Strain/Sex: BDF1/FEMALE, Route: GAVAGE, Dose: 0, 3.5 MG/KG 1/8 WK FOR 1 YR (STUDY DURATION: 2 YR)): inactive; negative

Cc1cc2ccccc2c2ccc3c(c12)[C@H]1O[C@H]1[C@@H](O)[C@H]3O
carcinogen call (Species: MOUSE, Strain/Sex: ICR/FEMALE, Route: INTRAPERITONEAL, Dose: 8 NMOL/5 µL DMSO ON DAY 1, 16 NMOL/10 µL ON DAY 8, AND 32 NMOL/20 µL ON DAY 15 OF AGE (STUDY DURATION: 35 WK), Tumor Site: Type of Lesion: LUNG: TUMORS): active; positive
carcinogen call (Species: MOUSE, Strain/Sex: ICR/MALE, Route: INTRAPERITONEAL, Dose: 8 NMOL/5 µL DMSO ON DAY 1, 16 NMOL/10 µL ON DAY 8, AND 32 NMOL/20 µL ON DAY 15 OF AGE (STUDY DURATION: 35 WK), Tumor Site: Type of Lesion: LIVER: TUMORS): active; positive

O=C(O)CC(O)(CC(=O)O)C(=O)O
carcinogen call (Species: MOUSE, Strain/Sex: BC3F1/FEMALE, Route: IP INJECTION ONCE, Dose: 100, 500, 1000, 5000 BQ (STUDY DURATION: LIFESPAN), Dose: 100, 500, 1000, 5000 BQ (STUDY DURATION: LIFESPAN), Tumor Site: Type of Lesion: BONE: OSTEOSARCOMAS): active; positive
carcinogen call (Species: MOUSE, Strain/Sex: C3H/FEMALE, Route: IP INJECTION ONCE, Dose: 100, 500, 1000, 5000 BQ (STUDY DURATION: LIFESPAN), Dose: 100, 500, 1000, 5000 BQ (STUDY DURATION: LIFESPAN), Tumor Site: Type of Lesion: BONE: OSTEOSARCOMAS): active; positive
carcinogen call (Species: MOUSE, Strain/Sex: C57BL/6/FEMALE, Route: IP INJECTION ONCE, Dose: 100, 500, 1000, 5000 BQ (STUDY DURATION: LIFESPAN), Dose: 100, 500, 1000, 5000 BQ (STUDY DURATION: LIFESPAN), Tumor Site: Type of Lesion: BONE: OSTEOSARCOMAS): active; positive

C[C@]12CC[C@@H]3c4ccc(O)cc4CC[C@H]3[C@@H]1C[C@@H](O)[C@@H]2O
carcinogen call (Species: HAMSTER, Route: SUBCUTANEOUS IMPLANT, Tumor Site: Type of Lesion: KIDNEY): active; positive
carcinogen call (Species: HUMAN, Tumor Site: Type of Lesion: UTERUS (ENDOMETRIUM)): active; positive
carcinogen call (Species: MOUSE, Route: SUBCUTANEOUS IMPLANT, Tumor Site: Type of Lesion: MAMMARY GLAND): active; positive

NC(=O)N/N=C/c1ccc([N+](=O)[O-])o1
carcinogen call (Species: MOUSE, Strain/Sex: B6C3F1/FEMALE, Route: ORAL, Dose: 0, 150, 310 PPM IN DIET (STUDY DURATION: 2 YR), Dose: 0, 150, 310 PPM IN DIET (STUDY DURATION: 2 YR), Tumor Site: Type of Lesion: OVARIES: GRANULOSA CELL TUMOR): active; positive
carcinogen call (Species: MOUSE, Strain/Sex: B6C3F1/FEMALE, Route: ORAL, Dose: 0, 150, 310 PPM IN DIET FOR 103 WK (STUDY DURATION: 105 WK), Dose: 0, 150, 310 PPM IN DIET FOR 103 WK (STUDY DURATION: 105 WK), Tumor Site: Type of Lesion: OVARY: GRANULOSA CELL TUMOR, OVARY: GRANULOSA CELL TUMOR OR LUTEOMA;OVARY: MIXED TUMOR,BENIGN, OVARY: TUBULAR CELL ADENO, Tumor Site: Type of Lesion: OVARY: GRANULOSA CELL TUMOR, OVARY: GRANULOSA CELL TUMOR OR LUTEOMA;OVARY: MIXED TUMOR,BENIGN, OVARY: TUBULAR CELL ADENO): active; positive
carcinogen call (Species: MOUSE, Strain/Sex: B6C3F1/MALE, Route: ORAL, Dose: 0, 150, 310 PPM IN DIET (STUDY DURATION: 2 YR), Dose: 0, 150, 310 PPM IN DIET (STUDY DURATION: 2 YR)): inactive; negative
carcinogen call (Species: MOUSE, Strain/Sex: B6C3F1/MALE, Route: ORAL, Dose: 0, 150, 310 PPM IN DIET FOR 103 WK (STUDY DURATION: 105 WK), Dose: 0, 150, 310 PPM IN DIET FOR 103 WK (STUDY DURATION: 105 WK)): inactive; negative
carcinogen call (Species: MOUSE, Strain/Sex: ICR/MALE, FEMALE, Route: SUBCUTANEOUS, Dose: 0, 75 UG/G ONCE WITHIN 12 HR OF BIRTH AND ONCE ON DAYS 7,14 AND 21 OF AGE (STUDY DURATION: 32 WK), Tumor Site: Type of Lesion: LUNG: PAPILLARY ADENOMA): active; positive
carcinogen call (Species: MOUSE, Strain/Sex: ICR/MALE, FEMALE, Route: TRANSPLACENTAL, Dose: 0, 75 UG/G ADMINISTERED SUBCUTANEOUSLY TO MOTHERS ON DAYS 13, 15 AND 17 OF GESTATION (STUDY DURATION: 33 WK)): inactive; negative
carcinogen call (Species: RAT, Strain/Sex: F344/FEMALE, Route: ORAL, Dose: 0, 310, 620 PPM IN DIET FOR 103 WK (STUDY DURATION: 105 WK), Dose: 0, 310, 620 PPM IN DIET FOR 103 WK (STUDY DURATION: 105 WK), Tumor Site: Type of Lesion: MAMMARY GLAND: FIBROADENOMA): active; positive
carcinogen call (Species: RAT, Strain/Sex: F344/MALE, Route: ORAL, Dose: 0, 310, 620 PPM IN DIET FOR 103 WK (STUDY DURATION: 105 WK), Dose: 0, 310, 620 PPM IN DIET FOR 103 WK (STUDY DURATION: 105 WK), Tumor Site: Type of Lesion: SEBACEOUS GLAND: ADENOMA, SKIN: TRICHOEPITHELIOMA, TUNICA VAGINALIS: MESOTHELIOMA, PREPUTIAL GLAND: ADENOMA, CARCINOMA, Tumor Site: Type of Lesion: SEBACEOUS GLAND: ADENOMA, SKIN: TRICHOEPITHELIOMA, TUNICA VAGINALIS: MESOTHELIOMA, PREPUTIAL GLAND: ADENOMA, CARCINOMA): equivocal
carcinogen call (Species: RAT, Strain/Sex: F344 INBRED/FEMALE, Route: ORAL, Dose: 0, 310, 620 PPM IN DIET (STUDY DURATION: 2 YR), Dose: 0, 310, 620 PPM IN DIET (STUDY DURATION: 2 YR), Tumor Site: Type of Lesion: MAMMARY GLAND: FIBROADENOMA): active; positive

COc1ccc(N)c(OC)c1
carcinogen call (Species: MOUSE, Strain/Sex: B6C3F1/FEMALE, Route: ORAL, Dose: 0, 2500, 5000 PPM IN DIET, Dose: 0, 2500, 5000 PPM IN DIET): inactive; negative
carcinogen call (Species: MOUSE, Strain/Sex: B6C3F1/MALE, Route: ORAL, Dose: 0, 2500, 5000 PPM IN DIET, Dose: 0, 2500, 5000 PPM IN DIET): inactive; negative
carcinogen call (Species: RAT, Strain/Sex: F344/FEMALE, Route: ORAL, Dose: 0, 1500, 3000 PPM IN DIET, Dose: 0, 1500, 3000 PPM IN DIET): inactive; negative
carcinogen call (Species: RAT, Strain/Sex: F344/MALE, Route: ORAL, Dose: 0, 1500, 3000 PPM IN DIET, Dose: 0, 1500, 3000 PPM IN DIET): inactive; negative
